Reference: patent US20040132740A1, “Novel antibiotics” (priority 2001, published 2004)
Structures can show the parent of a compound that is named as a salt.

Experiments:
[1] = test system: E. coli; assay: Minimum inhibitory concentration in vitro against E. coli; assay type: cell-based; conditions: Escherichia coli, aqueous solution of hydrochloride salts
Description: (§1) An aqueous solution of the salts of the compounds reported in this invention namely compound (A) and compound (B) were tested in vitro against E. coli and St. aureus according to an established clinical procedure (Mackie and McCartney: Practical Medical Microbiology, Churchill livingstone, 1996, 14th edition, p159-163).

[2] = test system: St. aureus; assay: Minimum inhibitory concentration in vitro against St. aureus; assay type: cell-based; conditions: Staphylococcus aureus, aqueous solution of hydrochloride salts
Description: as §1

[3] = test system: Staphylococcus aureus; assay: MIC / effective maintenance dose to control bacterial re-growth, clinically isolated Staphylococcus aureus; assay type: cell-based; conditions: clinically isolated microorganism, read-out: effective maintenance dose necessary to control bacterial re-growth (MIC), Staphylococcus aureus
Description: (§2) The minimum inhibitory concentration (MIC) of compound (A) and ciprofloxacin were also studied using clinically isolated microorganism staphylococcus aureus and pseudomotias aeruginose.
(§3) The experimental work was carried out according to an established clinical procedure […] (Mackie and McCartney, ibid).

[4] = test system: Pseudomones aeruginose; assay: MIC / effective maintenance dose to control bacterial re-growth, clinically isolated Pseudomones aeruginose; assay type: cell-based; conditions: clinically isolated microorganism
Description: as §2, §3

[5] = LD50 on mice; conditions: mouse, in vivo
[6] = test system: gram-positive and gram-negative organisms; assay: Antibacterial effect compared with ciprofloxacin hydrochloride under the same experimental conditions; assay type: cell-based, E. coli and St. aureus; conditions: hydrochloride salt
Description: as §1

[7] = test system: bacteria; assay: Further incubation of the positive samples for up to 16 hours (bacterial re-growth); assay type: cell-based
Description: as §3

| SMILES | melting point | MIC [1] | MIC [2] | MIC [3] | effective maintenance dose necessary to control bacterial re-growth (MIC), Pseudomones aeruginose [4] | LD50 [5] | antibacterial effect towards gram-positive and gram-negative organisms [6] | sensitivity and effectiveness as antibacterial agent ([7]; compared with ciprofloxacin hydrochloride) | bacterial growth after further incubation of the positive samples ([7]; incubation up to 16 hours, dose of 0.0 μg/ml printed for compound (A)) |
| --- | --- | --- | --- | --- | --- | --- | --- | --- | --- |
| CN1CCN(c2cc3c(cc2F)c(=O)ccn3C2CC2)CC1 (as salt: hydrochloride) [Compound (B), 1-cyclopropyl-6-fluoro-1,4-dihydro-4-oxo-7-(1-(4-methyl)piperazinyl)-quinoline] | 238 to 240 °C |  |  |  |  |  |  |  |  |
| O=c1ccn(C2CC2)c2cc(N3CCNCC3)c(F)cc12 [Compound (A) HCl salt, 1-cyclopropyl-6-fluoro-1,4-dihydro-4-oxo-7(1-piperazinyl)-quinoline] |  | 0.01 µg/mL | 0.08 µg/mL | 0.06 µg/mL | 0.05 µg/mL | 28 mg/kg | better antibacterial effect | more sensitive and effective | very slow bacterial growth |
| CN1CCN(c2cc3c(cc2F)c(=O)ccn3C2CC2)CC1 [Compound (B), 1-cyclopropyl-6-fluoro-1,4-dihydro-4-oxo-7-(1-(4-methyl)piperazinyl)-quinoline] |  |  |  |  |  |  | better antibacterial effect |  |  |
